Assay results reported in US6914045B2, “Glycopeptide antibiotics” (Wyeth Holdings Corporation, priority 2001, dated 2005).
In brackets after ≈: the same amount, converted by molar mass. One block for each compound: values may come before it.

Key:
Test in all cases: in vitro antibacterial evaluation, MIC by broth dilution
Format in all cases: cell-based
[1] = system: Streptococcus sp.; details: broth dilution, 18 hours at 35° C.
In short: (§1)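 MIC = lowest antibiotic concentration preventing visible growth; inoculum 5×10^5 CFU/mL; drug range 64-0.06 μg/mL; Muller-Hinton II […]; NCCLS M7-A2 guidance.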

[2] = system: Staphylococcus sp.; details: broth dilution, 18 hours at 35° C.; for MIC Staphylococcus aureus (GC 1131): strain GC 1131; for MIC Staphylococcus aureus (ATCC 29213): strain ATCC 29213; for MIC Staphylococcus aureus (GC 3051): strain GC 3051; for MIC Staphylococcus aureus (GC 3053): strain GC 3053; for MIC Staphylococcus aureus (GC 4541): strain GC 4541; for MIC Staphylococcus aureus (GC 4542): strain GC 4542; for MIC Staphylococcus aureus-SMITH (GC 4543): strain GC 4543; for MIC Staphylococcus aureus (GC 4544): strain GC 4544; for MIC Staphylococcus aureus (GC 4545): strain GC 4545; for MIC Staphylococcus haemolyticus (GC 4546): strain GC 4546; for MIC Coagulase Negative Staphylococcus (GC 4547): strain GC 4547; for MIC Coagulase Negative Staphylococcus (GC 4548): strain GC 4548; for MIC Coagulase Negative Staphylococcus (GC 4549): strain GC 4549; for MIC Coagulase Negative Staphylococcus (GC 4551): strain GC 4551; for MIC Coagulase Negative Staphylococcus (GC 6257): strain GC 6257
In short: as §1

[3] = system: Enterococcus sp.; details: broth dilution, 18 hours at 35° C.
In short: as §1

[4] = system: Escherichia coli; details: 18 hours at 35° C.

MIC Streptococcus agalactiae (GC 4564) [1]: 0.12 µg/mL (≈ 0.0777 µM)
MIC Streptococcus pneumoniae (ATCC 6301) [1]: <0.06 µg/mL
MIC Streptococcus pneumoniae (GC 1894) [1]: <0.06 µg/mL
MIC Streptococcus pneumoniae (GC 4565) [1]: <0.06 µg/mL
MIC Streptococcus pyogenes (GC 4563) [1]: 0.25 µg/mL (≈ 0.162 µM)
MIC Streptococcus pneumoniae (ATCC 6301) ([1]; inoculum 5×10^5 CFU/mL, strain ATCC 6301): <0.06 µg/mL
MIC Streptococcus pneumoniae (GC 1894) ([1]; inoculum 5×10^5 CFU/mL, strain GC 1894): <0.06 µg/mL
MIC Streptococcus pyogenes (GC 4563) ([1]; inoculum 5×10^5 CFU/mL, strain GC 4563): 0.25 µg/mL (≈ 0.162 µM)
MIC Streptococcus agalactiae (GC 4564) ([1]; inoculum 5×10^5 CFU/mL, strain GC 4564): 0.12 µg/mL (≈ 0.0777 µM)
MIC Streptococcus pneumoniae (GC 4565) ([1]; inoculum 5×10^5 CFU/mL, strain GC 4565): <0.06 µg/mL
MIC Staphylococcus aureus (GC 1131) ([2]; inoculum 5×10^5 CFU/mL): 32 µg/mL (≈ 20.7 µM)
MIC Staphylococcus aureus (ATCC 29213) [2]: 32 µg/mL (≈ 20.7 µM)
MIC Staphylococcus aureus (GC 1131) [2]: 32 µg/mL (≈ 20.7 µM)
MIC Staphylococcus aureus (GC 3051) [2]: 32 µg/mL (≈ 20.7 µM)
MIC Staphylococcus aureus (GC 3053) [2]: 32 µg/mL (≈ 20.7 µM)
MIC Staphylococcus aureus (GC 4541) [2]: 32 µg/mL (≈ 20.7 µM)
MIC Staphylococcus aureus (GC 4542) [2]: 32 µg/mL (≈ 20.7 µM)
MIC Staphylococcus aureus-SMITH (GC 4543) [2]: 32 µg/mL (≈ 20.7 µM)
MIC Staphylococcus aureus (GC 4544) [2]: 32 µg/mL (≈ 20.7 µM)
MIC Staphylococcus aureus (GC 4545) [2]: 32 µg/mL (≈ 20.7 µM)
MIC Coagulase Negative Staphylococcus (GC 4547) [2]: 32 µg/mL (≈ 20.7 µM)
MIC Coagulase Negative Staphylococcus (GC 4548) [2]: 16 µg/mL (≈ 10.4 µM)
MIC Coagulase Negative Staphylococcus (GC 4549) [2]: 32 µg/mL (≈ 20.7 µM)
MIC Coagulase Negative Staphylococcus (GC 4551) [2]: 32 µg/mL (≈ 20.7 µM)
MIC Coagulase Negative Staphylococcus (GC 6257) [2]: 16 µg/mL (≈ 10.4 µM)
MIC Enterococcus avium (GC 4558) [3]: 32 µg/mL (≈ 20.7 µM)
MIC Enterococcus faecalis (ATCC 29212) [3]: 32 µg/mL (≈ 20.7 µM)
MIC Enterococcus faecalis (GC 2242) [3]: 32 µg/mL (≈ 20.7 µM)
MIC Enterococcus faecalis (GC 2691) [3]: 32 µg/mL (≈ 20.7 µM)
MIC Enterococcus faecalis (GC 3059) [3]: 32 µg/mL (≈ 20.7 µM)
MIC Enterococcus faecalis (GC 4552) [3]: 32 µg/mL (≈ 20.7 µM)
MIC Enterococcus faecalis (GC 4553) [3]: 16 µg/mL (≈ 10.4 µM)
MIC Enterococcus faecalis (GC 4554) [3]: 32 µg/mL (≈ 20.7 µM)
MIC Enterococcus faecalis (GC 6189) [3]: 32 µg/mL (≈ 20.7 µM)
MIC Enterococcus faecium (GC 2243) [3]: 16 µg/mL (≈ 10.4 µM)
MIC Enterococcus faecium (GC 4556) [3]: 32 µg/mL (≈ 20.7 µM)
MIC Enterococcus faecium (GC 4557) [3]: 32 µg/mL (≈ 20.7 µM)
MIC Enterococcus faecalis (ATCC 29212) ([3]; inoculum 5×10^5 CFU/mL, strain ATCC 29212): 32 µg/mL (≈ 20.7 µM)
MIC Enterococcus faecalis (GC 2242) ([3]; inoculum 5×10^5 CFU/mL, strain GC 2242): 32 µg/mL (≈ 20.7 µM)
MIC Enterococcus faecium (GC 2243) ([3]; inoculum 5×10^5 CFU/mL, strain GC 2243): 16 µg/mL (≈ 10.4 µM)
MIC Enterococcus faecalis (GC 2691) ([3]; inoculum 5×10^5 CFU/mL, strain GC 2691): 32 µg/mL (≈ 20.7 µM)
MIC Enterococcus faecalis (GC 3059) ([3]; inoculum 5×10^5 CFU/mL, strain GC 3059): 32 µg/mL (≈ 20.7 µM)
MIC Enterococcus faecalis (GC 4552) ([3]; inoculum 5×10^5 CFU/mL, strain GC 4552): 32 µg/mL (≈ 20.7 µM)
MIC Enterococcus faecalis (GC 4553) ([3]; inoculum 5×10^5 CFU/mL, strain GC 4553): 16 µg/mL (≈ 10.4 µM)
MIC Enterococcus faecalis (GC 4554) ([3]; inoculum 5×10^5 CFU/mL, strain GC 4554): 32 µg/mL (≈ 20.7 µM)
MIC Enterococcus faecium (GC 4556) ([3]; inoculum 5×10^5 CFU/mL, strain GC 4556): 32 µg/mL (≈ 20.7 µM)
MIC Enterococcus faecium (GC 4557) ([3]; inoculum 5×10^5 CFU/mL, strain GC 4557): 32 µg/mL (≈ 20.7 µM)
MIC Enterococcus avium (GC 4558) ([3]; inoculum 5×10^5 CFU/mL, strain GC 4558): 32 µg/mL (≈ 20.7 µM)
MIC Enterococcus faecalis (GC 6189) ([3]; inoculum 5×10^5 CFU/mL, strain GC 6189): 32 µg/mL (≈ 20.7 µM)
MIC Escherichia coli (ATCC 25922) [4]: >64 µg/mL
MIC Escherichia coli (GC 4559) [4]: >64 µg/mL
MIC Escherichia coli (GC 4560) [4]: 32 µg/mL (≈ 20.7 µM)
Structure (SMILES): CC(c1ccccc1)C1NC(=O)CNC(=O)C(CO)NC(=O)C(C(O)C2CNC(=N)N2C2OC(CO)C(O)C(O)C2O)NC(=O)C(C(O)C2CNC(=N)N2)NC(=O)C(Cc2ccc(OC3OC(CO)C(OC4OC5COC(c6cccc(Oc7cccc(C(F)(F)F)c7)c6)OC5C(O)C4O)C(O)C3O)cc2)NC1=O (stereo not shown) [Example 184]
MIC Staphylococcus haemolyticus (GC 4546) [2]: 32 µg/mL (≈ 20.7 µM)

MIC Streptococcus pneumoniae (ATCC 6301) ([1]; strain ATCC 6301): >128 µg/mL
MIC Streptococcus pneumoniae (GC 1894) ([1]; strain GC 1894): 128 µg/mL (≈ 121 µM)
MIC Streptococcus pyogenes (GC 4563) ([1]; strain GC 4563): >128 µg/mL
MIC Streptococcus agalactiae (GC 4564) ([1]; strain GC 4564): 128 µg/mL (≈ 121 µM)
MIC Streptococcus pneumoniae (GC 4565) ([1]; strain GC 4565): 64 µg/mL (≈ 60.6 µM)
MIC Staphylococcus aureus (ATCC 29213) [2]: >128 µg/mL
MIC Staphylococcus aureus (GC 1131) [2]: >128 µg/mL
MIC Staphylococcus aureus (GC 3051) [2]: >128 µg/mL
MIC Staphylococcus aureus (GC 3053) [2]: >128 µg/mL
MIC Staphylococcus aureus (GC 4541) [2]: >128 µg/mL
MIC Staphylococcus aureus (GC 4542) [2]: >128 µg/mL
MIC Staphylococcus aureus-SMITH (GC 4543) [2]: >128 µg/mL
MIC Staphylococcus aureus (GC 4544) [2]: >128 µg/mL
MIC Staphylococcus aureus (GC 4545) [2]: >128 µg/mL
MIC Coagulase Negative Staphylococcus (GC 4547) [2]: >128 µg/mL
MIC Coagulase Negative Staphylococcus (GC 4548) [2]: >128 µg/mL
MIC Coagulase Negative Staphylococcus (GC 4549) [2]: >128 µg/mL
MIC Coagulase Negative Staphylococcus (GC 4551) [2]: >128 µg/mL
MIC Coagulase Negative Staphylococcus (GC 6257) [2]: >128 µg/mL
MIC Enterococcus faecalis (ATCC 29212) ([3]; strain ATCC 29212): >128 µg/mL
MIC Enterococcus faecalis (GC 2242) ([3]; strain GC 2242): >128 µg/mL
MIC Enterococcus faecium (GC 2243) ([3]; strain GC 2243): >128 µg/mL
MIC Enterococcus faecalis (GC 2691) ([3]; strain GC 2691): >128 µg/mL
MIC Enterococcus faecalis (GC 3059) ([3]; strain GC 3059): >128 µg/mL
MIC Enterococcus faecalis (GC 4552) ([3]; strain GC 4552): >128 µg/mL
MIC Enterococcus faecalis (GC 4553) ([3]; strain GC 4553): >128 µg/mL
MIC Enterococcus faecalis (GC 4554) ([3]; strain GC 4554): >128 µg/mL
MIC Enterococcus faecium (GC 4556) ([3]; strain GC 4556): >128 µg/mL
MIC Enterococcus faecium (GC 4557) ([3]; strain GC 4557): >128 µg/mL
MIC Enterococcus avium (GC 4558) ([3]; strain GC 4558): 128 µg/mL (≈ 121 µM)
MIC Enterococcus faecalis (GC 6189) ([3]; strain GC 6189): >128 µg/mL
MIC Escherichia coli (ATCC 25922) ([4]; strain ATCC 25922, broth dilution): >128 µg/mL
MIC Escherichia coli (GC 4559) ([4]; strain GC 4559, broth dilution): >128 µg/mL
MIC Escherichia coli (GC 4560) ([4]; strain GC 4560, broth dilution): 128 µg/mL (≈ 121 µM)
Structure (SMILES): CC(C)C(=O)Nc1cc(CC2NC(=O)C(C(C)c3ccccc3)NC(=O)CNC(=O)C(CO)NC(=O)C(C(O)C3CNC(=N)N3C3OC(CO)C(O)C(O)C3O)NC(=O)C(C(O)C3CNC(=N)N3)NC2=O)ccc1O (stereo not drawn) [Example 15, Cyclo[glycyl-β-methylphenylalanyl-3-(2-methylpropanamido)tyrosyl-3-(2-iminoimidazolidin-4-yl)seryl-3-(3-hexopyranosyl-2-iminoimidazolidin-4-yl)serylseryl]]
MIC Staphylococcus haemolyticus (GC 4546) [2]: >128 µg/mL
